Reference: patent publication US11970494B2, “6-heteroaryloxy benzimidazoles and azabenzimidazoles as JAK2 inhibitors” (Ajax Therapeutics, Inc., priority 2021, dated 2024)
In brackets after ≈: the same amount, converted by molar mass. Read-outs that look alike come from different tables or passages of the source.

Columns and labels:
[1] = system: JAK2-mediated pSTAT5 signaling in constitutively active essential thrombocytopenia cells carrying the V617F mutation; experiment: SET2-pSTAT5 Cellular Assay; type: cell-based; conditions: Homo sapiens
Experimental: This assay measures inhibition of JAK2-mediated pSTAT5 signaling in constitutively active essential thrombocytopenia cells carrying the V617F mutation. Cells are harvested from a flask into cell culture medium, and the number of cells is counted. The cells are diluted with culture medium and 100 μL of cell suspension (50000/well) is added into each well of a 96-well cell culture plate. A solution of test compound is added to the assay plate. The plates are covered with a lid and placed in a 37° C. 5% CO2 incubator for 4 hours. After 4 hours, the cells are spun, and the cell pellets are re-suspended with 100 μL cold PBS. Then, the cells are spun again at 4° C. and 4000 rpm for 5 min. PBS is aspirated, and 25 μL lysis buffer (with protease and phosphatase inhibitor cocktail) is added to each cell pellet. The cell lysate is shaken at 4° C. for 20 min to fully lyse the cells. The cell lysate is spun at 4° C. and 4000 rpm for 15 min, and then the supernatant is transferred into a new plate and stored at −80° C. Meso-scale discovery (MSD) is used to analyze plates as follows: a standard MSD plate is coated with capture antibody in PBS (40 μL/well) and is incubated at 4° C. overnight with shaking. The MSD plate is washed three times with 150 μL/well of 1×MSD Wash Buffer (Tris-buffered saline with 0.1% Tween® 20 detergent, TBST). The MSD plates are then blocked with 150 μL of blocking buffer (5% BSA in TBST) and shaken for 1 h at room temperature and 600 rpm. The MSD plate is washed three times with 150 μL/well of 1×MSD Wash Buffer (TBST). Sample lysates are then added to MSD plates (25 μL/well) and shaken for 1 h at room temperature and 600 rpm. The MSD plate is washed three times with 150 μL/well of 1×MSD Wash Buffer (TBST). Detection antibody (prepared in Antibody Detection buffer, 1% BSA in 1×TBST) is then added to the MSD plates, and they are shaken for 1 h at room temperature and 600 rpm. The MSD plate is washed three times with 150 μL/well of 1×MSD Wash Buffer (TBST). A secondary detection antibody (prepared in Antibody Detection buffer, 1% BSA in 1×TBST) is then added to the MSD plates, and they are shaken for 1 h at room temperature and 600 rpm. The MSD plate is washed three times with 150 μL/well of 1×MSD Wash Buffer (TBST). MSD reading buffer (1×) is added to the plates (150 μL/well), and they are diluted from 4× with water. The plates are imaged using an MSD imaging instrument according to the manufacturer's instructions.

Kinetic Solubility Assay = type: physicochemical; conditions: aqueous buffer, kinetic from dmso stock, kinetic solubility in PBS (pH 4.0 and pH 7.4 in method; pH of table values not stated), RT
Experimental: Stock solutions of test compounds are prepared in DMSO at the concentration of 10 mM, and a stock solution of control compound is prepared in DMSO at the concentration of 30 mM. Diclofenac is used as positive control in the assay. 30 μL stock solution of each compound is placed into their a 96-well rack, followed by adding 970 μL of PBS at pH 4.0 and pH 7.4 into each vial of the cap-less solubility sample plate. This study is performed in duplicate. One stir stick is added to each vial and then vials are sealed using a molded PTDE/SIL 96-Well Plate Cover. The solubility sample plate is transferred to the Thermomixer comfort plate shaker and incubated at RT for 2 hours with shaking at 1100 rpm. After 2 hours incubation, stir sticks are removed using a big magnet and all samples from the solubility sample plate are transferred into the filter plate. All the samples are filtered by vacuum manifold. The filtered samples are diluted with methanol. Samples are analyzed by LC-MS/MS and quantified against a standard of known concentration in DMSO using LC coupled with Mass spectral peak identification and quantitation. The solubility values of the test compounds are calculated as follows, wherein INJ VOL is injection volume, DF is dilution factor, and STD is standard: […]

Tyk2 = target: T1, Tyk2 (Homo sapiens, UniProt P29597); experiment: JAK Family Selectivity Assay: Tyk2 vs JAK2 binding affinity; conditions: Kd TYK2 over Kd JAK2
T1 construct: made in house; host or cells: T7 phage in BL21-derived E. coli or HEK-293 cells
Experimental: Provided compounds are evaluated for selectivity by comparing their JAK2 binding affinity (Kd) in the above JAK2 Binding Assay with their binding affinity (Kd) for one or more other kinases. Binding affinity for other kinases is determined as follows: Kinase-tagged T7 phage strains are prepared in an E. coli host derived from the BL21 strain. E. coli are grown to log-phase and infected with T7 phage and incubated with shaking at 32° C. until lysis. The lysates are centrifuged and filtered to remove cell debris. The remaining kinases are produced in HEK-293 cells and subsequently tagged with DNA for qPCR detection. Streptavidin-coated magnetic beads are treated with biotinylated small molecule ligands for 30 minutes at room temperature to generate affinity resins for kinase assays. The liganded beads are blocked with excess biotin and washed with blocking buffer (SeaBlock (Pierce), 1% BSA, 0.05% Tween 20, 1 mM DTT) to remove unbound ligand and to reduce non-specific binding. Binding reactions are assembled by combining kinases, liganded affinity beads, and test compounds in 1× binding buffer (20% SeaBlock, 0.17×PBS, 0.05% Tween 20, 6 mM DTT). Test compounds are prepared as 111× stocks in 100% DMSO. Kds are determined using an 11-point 3-fold compound dilution series with three DMSO control points. All compounds for Kd measurements are distributed by acoustic transfer (non-contact dispensing) in 100% DMSO. The compounds are then diluted directly into the assays such that the final concentration of DMSO is 0.9%. All reactions are performed in polypropylene 384-well plate. Each has a final volume of 0.02 ml. The assay plates are incubated at room temperature with shaking for 1 hour and the affinity beads are washed with wash buffer (1×PBS, 0.05% Tween 20). The beads are then re-suspended in elution buffer (1× PBS, 0.05% Tween 20, 0.5 μM non-biotinylated affinity ligand) and incubated at room temperature with shaking for 30 minutes. The kinase concentration in the eluates is measured by qPCR. […] In some embodiments, provided compounds may be JAK2-selective over one or more of the following kinases: JAK1, JAK3, and Tyk2.

[2] = SET-2, SET2 cells, pSTAT5, 4 hours, MSD, read-out: IC50

T1 sequence (P29597 whole entry): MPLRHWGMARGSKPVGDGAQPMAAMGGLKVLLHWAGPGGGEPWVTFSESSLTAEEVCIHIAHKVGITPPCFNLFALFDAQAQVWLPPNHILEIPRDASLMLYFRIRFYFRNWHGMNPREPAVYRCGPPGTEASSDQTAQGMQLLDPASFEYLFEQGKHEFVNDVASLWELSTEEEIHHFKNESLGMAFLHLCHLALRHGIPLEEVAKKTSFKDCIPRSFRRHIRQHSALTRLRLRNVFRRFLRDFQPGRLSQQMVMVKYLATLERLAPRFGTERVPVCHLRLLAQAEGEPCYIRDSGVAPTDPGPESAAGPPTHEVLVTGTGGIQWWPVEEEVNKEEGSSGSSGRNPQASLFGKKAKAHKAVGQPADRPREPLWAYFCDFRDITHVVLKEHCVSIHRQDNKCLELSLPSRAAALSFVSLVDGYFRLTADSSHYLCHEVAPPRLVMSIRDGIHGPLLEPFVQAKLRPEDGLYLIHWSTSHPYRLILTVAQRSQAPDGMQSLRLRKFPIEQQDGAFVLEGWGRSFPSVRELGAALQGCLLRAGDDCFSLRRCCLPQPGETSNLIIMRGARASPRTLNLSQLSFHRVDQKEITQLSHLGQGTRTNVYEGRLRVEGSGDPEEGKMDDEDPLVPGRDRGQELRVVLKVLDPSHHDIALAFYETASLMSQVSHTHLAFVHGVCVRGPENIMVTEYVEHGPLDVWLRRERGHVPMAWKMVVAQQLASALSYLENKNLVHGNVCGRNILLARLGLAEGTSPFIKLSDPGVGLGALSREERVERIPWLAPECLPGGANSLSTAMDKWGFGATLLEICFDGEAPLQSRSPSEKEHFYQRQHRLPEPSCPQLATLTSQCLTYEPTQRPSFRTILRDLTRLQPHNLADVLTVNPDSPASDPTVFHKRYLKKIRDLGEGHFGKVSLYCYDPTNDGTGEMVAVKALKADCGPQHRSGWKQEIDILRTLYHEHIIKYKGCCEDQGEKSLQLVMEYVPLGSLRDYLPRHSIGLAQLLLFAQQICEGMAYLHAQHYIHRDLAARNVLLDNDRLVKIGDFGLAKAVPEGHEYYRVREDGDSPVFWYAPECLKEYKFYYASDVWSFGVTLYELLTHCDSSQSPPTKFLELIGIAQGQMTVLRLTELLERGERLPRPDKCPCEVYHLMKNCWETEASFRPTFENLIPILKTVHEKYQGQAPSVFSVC

Row | IC50 [1, 2] | SMILES | IC50 ([1]; SET-2, 4 h) | solubility at 2 h (Kinetic Solubility Assay) | TYK2/JAK2 Kd/Kd ratio (Tyk2)
1 |  | COC(=O)Nc1cc(Oc2cnc3nc(Nc4cc(C(F)(F)F)cn(C)c4=O)n(C)c3c2C#N)ccn1 [Example I-3, Methyl (4-((7-cyano-1-methyl-2-((1-methyl-2-oxo-5-(trifluoromethyl)-1,2-dihydropyridin-3-yl)amino)-1H-imidazo[4,5-b]pyridin-6-yl)oxy)pyridin-2-yl)carbamate] | < 125 nM | 0.1 to 9 µM (≈ 0.0514 to 4.63 µg/mL) | C (Kd/Kd ratio <300 and ≥100)
2 |  | CN(C)C(=O)Nc1cc(Oc2cnc3nc(Nc4cc(C(F)(F)F)cn(C)c4=O)n(C)c3c2C#N)ccn1 [Example I-4, 3-(4-((7-cyano-1-methyl-2-((1-methyl-2-oxo-5-(trifluoromethyl)-1,2-dihydropyridin-3-yl)amino)-1H-imidazo[4,5-b]pyridin-6-yl)oxy)pyridin-2-yl)-1,1-dimethylurea] | < 125 nM | 9 to 100 µM (≈ 4.75 to 52.7 µg/mL) | C (Kd/Kd ratio <300 and ≥100)
3 | < 125 nM | Cn1cc(C(F)(F)F)cc(Nc2nc3ncc(Oc4ccnc(NC(=O)N5CCC5)c4)c(C#N)c3n2C)c1=O [Example I-7, N-(4-((7-cyano-1-methyl-2-((1-methyl-2-oxo-5-(trifluoromethyl)-1,2-dihydropyridin-3-yl)amino)-1H-imidazo[4,5-b]pyridin-6-yl)oxy)pyridin-2-yl)azetidine-1-carboxamide] |  | 0.1 to 9 µM (≈ 0.0539 to 4.86 µg/mL) | D (Kd/Kd ratio <100)
4 | < 125 nM | Cn1c(Nc2cc3n(n2)CCC32CCC2)nc2ncc(Oc3ccnc(NC(=O)C4CC4)c3)c(C#N)c21 [Example I-122, N-(4-((7-cyano-2-((5′,6′-dihydrospiro[cyclobutane-1,4′-pyrrolo[1,2-b]pyrazol]-2′-yl)amino)-1-methyl-1H-imidazo[4,5-b]pyridin-6-yl)oxy)pyridin-2-yl)cyclopropanecarboxamide] |  | 0.1 to 9 µM (≈ 0.0496 to 4.46 µg/mL) | D (Kd/Kd ratio <100)
5 | 200 to 1000 nM | CC(=O)Nc1cc(Oc2cnc3nc(Nc4cc5n(n4)CCCC54CC4)n(C)c3c2C#N)ccn1 [Example I-114, N-(4-((7-cyano-2-((6′,7′-dihydro-5′H-spiro[cyclopropane-1,4′-pyrazolo[1,5-a]pyridin]-2′-yl)amino)-1-methyl-1H-imidazo[4,5-b]pyridin-6-yl)oxy)pyridin-2-yl)acetamide] |  | 9 to 100 µM (≈ 4.23 to 47 µg/mL) | 
6 | 200 to 1000 nM | CC(=O)Nc1cc(Oc2cnc3nc(Nc4cc5n(n4)CCOCC5(C)C)n(C)c3c2C#N)ccn1 [Example I-118, N-(4-((7-cyano-2-((4,4-dimethyl-4,5,7,8-tetrahydropyrazolo[1,5-d][1,4]oxazepin-2-yl)amino)-1-methyl-1H-imidazo[4,5-b]pyridin-6-yl)oxy)pyridin-2-yl)acetamide] |  | 9 to 100 µM (≈ 4.39 to 48.8 µg/mL) | 
7 |  | COC(=O)Nc1cc(Oc2cnc3nc(Nc4cc5n(n4)CCC54CCC4)n(C)c3c2C#N)ccn1 [Example I-57, methyl(4-((7-cyano-2-((5′,6′-dihydrospiro[cyclobutane-1,4′-pyrrolo[1,2-b]pyrazol]-2′-yl)amino)-1-methyl-1H-imidazo[4,5-b]pyridin-6-yl)oxy)pyridin-2-yl)carbamate] | 125 to 200 nM | 0.1 to 9 µM (≈ 0.0486 to 4.37 µg/mL) | 
8 | 1000 to 5000 nM | Cn1c(Nc2cc3n(n2)CCOC3(C)C)nc2ncc(Oc3ccnc(NC(=O)O[C@@H]4CCOC4)c3)c(C#N)c21 [Example I-48, (R)-Tetrahydrofuran-3-yl(4-((7-cyano-2-((4,4-dimethyl-6,7-dihydro-4H-pyrazolo[5,1-c][1,4]oxazin-2-yl)amino)-1-methyl-1H-imidazo[4,5-b]pyridin-6-yl)oxy)pyridin-2-yl)carbamate] |  | 0.1 to 9 µM (≈ 0.0546 to 4.91 µg/mL) | 
9 | 200 to 1000 nM | COC1CN(C(=O)Nc2cc(Oc3cnc4nc(Nc5cc6n(n5)CCCC6(F)F)n(C)c4c3C#N)ccn2)C1 [Example I-26, N-(4-((7-cyano-2-((4,4-difluoro-4,5,6,7-tetrahydropyrazolo[1,5-a]pyridin-2-yl)amino)-1-methyl-1H-imidazo[4,5-b]pyridin-6-yl)oxy)pyridin-2-yl)-3-methoxyazetidine-1-carboxamide] |  | 9 to 100 µM (≈ 4.95 to 55.1 µg/mL) | 
10 |  | CN(C)C(=O)Nc1cc(Oc2cnc3nc(Nc4cc5n(n4)CCC54CCC4)n(C)c3c2C#N)ccn1 [Example I-56, 3-(4-((7-cyano-2-((5′,6′-dihydrospiro[cyclobutane-1,4′-pyrrolo[1,2-b]pyrazol]-2′-yl)amino)-1-methyl-1H-imidazo[4,5-b]pyridin-6-yl)oxy)pyridin-2-yl)-1,1-dimethylurea] | 125 to 200 nM | 9 to 100 µM (≈ 4.49 to 49.9 µg/mL) | 

Row | SMILES | IC50 [1, 2] | IC50 ([1]; SET-2, 4 h) | solubility at 2 h (Kinetic Solubility Assay) | TYK2/JAK2 Kd/Kd ratio (Tyk2)
11 | COCC(=O)Nc1cc(Oc2cnc3nc(Nc4cc(C(F)(F)F)cn(C)c4=O)n(C)c3c2C#N)ccn1 [Example I-79, N-(4-((7-cyano-1-methyl-2-((1-methyl-2-oxo-5-(trifluoromethyl)-1,2-dihydropyridin-3-yl)amino)-1H-imidazo[4,5-b]pyridin-6-yl)oxy)pyridin-2-yl)-2-methoxyacetamide] | < 125 nM |  | 0.1 to 9 µM (≈ 0.0528 to 4.76 µg/mL) | C (Kd/Kd ratio <300 and ≥100)
12 | COCCOC(=O)Nc1cc(Oc2cnc3nc(Nc4cc5n(n4)CCC54CCC4)n(C)c3c2C#N)ccn1 [Example I-62, 2-methoxyethyl(4-((7-cyano-2-((5′,6′-dihydrospiro[cyclobutane-1,4′-pyrrolo[1,2-b]pyrazol]-2′-yl)amino)-1-methyl-1H-imidazo[4,5-b]pyridin-6-yl)oxy)pyridin-2-yl)carbamate] | < 125 nM |  | 0.1 to 9 µM (≈ 0.053 to 4.77 µg/mL) | C (Kd/Kd ratio <300 and ≥100)
13 | CO[C@@H]1CCN(C(=O)Nc2cc(Oc3cnc4nc(Nc5cc6n(n5)CCC65CCC5)n(C)c4c3C#N)ccn2)C1 [Example I-60, (R)-N-(4-((7-cyano-2-((5′,6′-dihydrospiro[cyclobutane-1,4′-pyrrolo[1,2-b]pyrazol]-2′-yl)amino)-1-methyl-1H-imidazo[4,5-b]pyridin-6-yl)oxy)pyridin-2-yl)-3-methoxypyrrolidine-1-carboxamide] | < 125 nM |  | 9 to 100 µM (≈ 4.99 to 55.5 µg/mL) | D (Kd/Kd ratio <100)
